pIC50: −log10 of the molar value.
Key:
[1] = system: MIA PaCa-2 cells (KRAS G12C mutant); assay: MIA PaCa-2 cell anti-proliferation (CellTiter-Glo); assay type: cell-based; details: Homo sapiens, 72 h; MIA Paca-2 cells, 3 days, Table 7; read-out: MIA PaCa-2 (IC50)
Method: The number of viable cells was determined using the CellTiter-Glo® assay to evaluate the anti-proliferation efficacy of compounds. […] The compounds were serially diluted 4-fold in DMSO to obtain 9 concentrations, and then further diluted with DMEM (10% FBS+2.5% horse serum+1% penicillin/streptomycin) cell culture medium to obtain the working solutions (2×), 15 μL of each working solution was added to the cell culture supernatant in each well, and the cells were further incubated for 3 days at 37° C. with 5% CO2. The plate was then equilibrated with CellTiter-Glo® reagent at room temperature (25° C.) for 30 minutes. After adding 25 μL of CellTiter-Glo®, reagent, the cells were thoroughly mixed with the CellTiter-Glo® reagent using a microplate shaker for 2 minutes, and then incubated at room temperature for at least 30 minutes. […] Data were analyzed using GraphPad Prism for IC50 values (Note: The negative control refers to the group without inhibitor).

PI3Kα = PI3Kα (Homo sapiens (Human), UniProt P42336); assay: Inhibition of PI3Kα efficacy assay (ADP-Glo kinase assay); assay type: biochemical; details: Table 4; read-out: PI3Kα inhibitory activity (IC50)
Method in brief: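 Eight five-fold dilutions of compound (2 mM DMSO stock) tested; kinase reaction with PI and ATP ran 60 min at RT, followed by ADP-Glo and detection reagent steps of 40 min each. Four-parameter logistic fitting gave IC50 values.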

[2] = system: NCI-H358 cells (KRAS G12C mutant); assay: NCI-H358 cell proliferation inhibition (CellTiter-Glo); assay type: cell-based; details: Homo sapiens, NCI-H358, 72 h; H358 cells (G12C mutation), 3 days, Table 6; read-out: NCI-H358 (IC50)

PI3Kα, sequence (P42336 whole entry): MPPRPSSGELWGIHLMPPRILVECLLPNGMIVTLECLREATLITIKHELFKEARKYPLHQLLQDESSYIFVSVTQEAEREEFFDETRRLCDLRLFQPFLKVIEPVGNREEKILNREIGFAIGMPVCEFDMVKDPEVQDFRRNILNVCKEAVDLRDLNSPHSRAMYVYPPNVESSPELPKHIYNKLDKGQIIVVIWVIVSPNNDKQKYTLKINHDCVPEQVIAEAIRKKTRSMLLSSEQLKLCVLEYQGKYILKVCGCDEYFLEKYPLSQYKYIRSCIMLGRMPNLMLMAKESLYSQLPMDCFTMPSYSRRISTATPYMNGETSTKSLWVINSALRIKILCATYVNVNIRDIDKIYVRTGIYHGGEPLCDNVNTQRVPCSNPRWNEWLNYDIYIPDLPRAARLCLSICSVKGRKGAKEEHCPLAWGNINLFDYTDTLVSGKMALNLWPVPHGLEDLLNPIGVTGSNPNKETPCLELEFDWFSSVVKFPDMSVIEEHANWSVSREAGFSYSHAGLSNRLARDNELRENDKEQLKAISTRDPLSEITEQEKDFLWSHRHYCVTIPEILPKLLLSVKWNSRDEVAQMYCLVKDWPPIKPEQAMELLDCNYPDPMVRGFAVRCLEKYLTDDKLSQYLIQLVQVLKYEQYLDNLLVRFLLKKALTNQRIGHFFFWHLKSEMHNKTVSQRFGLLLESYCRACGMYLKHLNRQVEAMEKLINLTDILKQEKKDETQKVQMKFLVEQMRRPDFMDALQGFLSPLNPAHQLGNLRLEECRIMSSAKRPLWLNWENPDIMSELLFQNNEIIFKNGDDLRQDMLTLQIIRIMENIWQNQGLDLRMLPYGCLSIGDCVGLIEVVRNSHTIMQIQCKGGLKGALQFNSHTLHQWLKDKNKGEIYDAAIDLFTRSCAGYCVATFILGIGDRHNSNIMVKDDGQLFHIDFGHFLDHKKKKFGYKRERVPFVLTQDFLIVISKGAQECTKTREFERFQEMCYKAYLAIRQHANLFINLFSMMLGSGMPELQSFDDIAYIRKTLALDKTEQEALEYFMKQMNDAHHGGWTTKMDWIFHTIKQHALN
PI3Kα, sequence (P27986 whole entry partner): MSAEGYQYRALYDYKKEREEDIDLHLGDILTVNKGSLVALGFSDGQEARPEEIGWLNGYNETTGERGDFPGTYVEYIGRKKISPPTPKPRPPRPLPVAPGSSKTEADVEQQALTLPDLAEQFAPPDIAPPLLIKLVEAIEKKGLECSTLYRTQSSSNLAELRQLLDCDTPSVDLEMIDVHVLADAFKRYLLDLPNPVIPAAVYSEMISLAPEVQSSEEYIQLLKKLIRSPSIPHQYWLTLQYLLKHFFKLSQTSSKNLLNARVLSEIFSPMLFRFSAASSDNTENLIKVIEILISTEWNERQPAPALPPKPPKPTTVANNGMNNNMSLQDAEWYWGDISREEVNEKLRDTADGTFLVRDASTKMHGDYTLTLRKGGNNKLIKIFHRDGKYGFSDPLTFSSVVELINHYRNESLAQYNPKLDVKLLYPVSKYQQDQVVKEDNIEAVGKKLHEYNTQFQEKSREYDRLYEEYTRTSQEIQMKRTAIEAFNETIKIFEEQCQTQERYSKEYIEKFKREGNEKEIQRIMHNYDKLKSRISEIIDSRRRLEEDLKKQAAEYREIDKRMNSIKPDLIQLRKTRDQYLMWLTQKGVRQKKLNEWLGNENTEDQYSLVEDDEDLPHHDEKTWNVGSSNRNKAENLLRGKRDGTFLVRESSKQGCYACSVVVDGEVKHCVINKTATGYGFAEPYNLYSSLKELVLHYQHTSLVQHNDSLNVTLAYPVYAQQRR

Compound	pIC50 [1]	pIC50 (PI3Kα)	pIC50 [2]
COc1ncc(-c2ccc3ncnc(N4CC5CCC(C4)N5C(=O)/C=C/C(C)=O)c3n2)cc1NS(=O)(=O)c1c(F)cccc1F [Example 137, 2,6-difluoro-N-(2-methoxy-5-(4-(8-((E)-4-oxopent-2-enoyl)-3,8-diazabicyclo[3.2.1]octan-3-yl)pyrido[3,2-d]pyrimidin-6-yl)pyridin-3-yl)benzenesulfonamide]	8.17		
COc1ncc(-c2ccc3ncnc(N4CCN(C(=O)/C=C/C(C)=O)C[C@@H]4C)c3n2)cc1NS(=O)(=O)c1c(F)cccc1F [Example 138, (S,E)-2,6-difluoro-N-(2-methoxy-5-(4-(2-methyl-4-(4-oxopent-2-enoyl)piperazin-1-yl)pyrido[3,2-d]pyrimidin-6-yl)pyridin-3-yl)benzenesulfonamide]	7.98		
COc1ncc(-c2ccc3ncnc(N4CCN(C(=O)/C(C#N)=C/C(C)(C)C)CC4)c3c2)cc1NS(=O)(=O)c1ccc(F)cc1F [Example 180, (E)-N-(5-(4-(4-(2-cyano-4,4-dimethyl-pent-2-enoyl)piperazin-1-yl)quinazolin-6-yl)-2-methoxy-pyridin-3-yl)-2,4-difluoro-benzene-sulfonamide]	7.34	8.74	6.94
CSc1ncc(-c2ccc3ncnc(N4CCN(C(=O)/C=C/C(C)=O)CC4)c3c2)cc1NS(=O)(=O)c1ccc(F)cc1F [Example 182, (E)-2,4-difluoro-N-(2-(methylthio)-5-(4-(4-(4-oxopent-2-enoyl)piperazin-1-yl)quinazolin-6-yl)pyridin-3-yl)benzene-sulfonamide]	6.70	9.19	6.64
CC(=O)/C=C/C(=O)N1CCN(c2ncnc3ccc(-c4cnc(C)c(NS(=O)(=O)c5ccc(F)cc5F)c4)cc23)CC1 [Example 188, (E)-2,4-difluoro-N-(2-methyl-5-(4-(4-(4-oxopent-2-enoyl)piperazin-1-yl)quinazolin-6-yl)pyridin-3-yl)benzene-sulfonamide]	6.06	8.48	6.28
CCOc1ncc(-c2ccc3ncnc(N4CCN(C(=O)/C=C/C(C)=O)CC4)c3c2)cc1NS(=O)(=O)c1ccccc1F [Example 190, (E)-N-(2-ethoxy-5-(4-(4-(4-oxopent-2-enoyl)piperazin-1-yl)quinazolin-6-yl)pyridin-3-yl)-2-fluoro-benzene-sulfonamide]	6.97	8.02	6.95
CC(=O)/C=C/C(=O)N1CCN(c2ncnc3ccc(-c4cnc(C(F)(F)F)c(NS(=O)(=O)c5ccc(F)cc5F)c4)cc23)CC1 [Example 192, (E)-2,4-difluoro-N-(5-(4-(4-(4-oxopent-2-enoyl)piperazin-1-yl)quinazolin-6-yl)-2-(tri-fluoromethyl)pyridin-3-yl) benzene-sulfonamide]	6.08	8.03	6.11
CC(=O)/C=C/C(=O)N1CCN(c2ncnc3ccc(-c4cnc(OC(F)(F)F)c(NS(=O)(=O)c5ccc(F)cc5F)c4)cc23)CC1 [Example 194, (E)-2,4-difluoro-N-(5-(4-(4-(4-oxopent-2-enoyl)piperazin-1-yl)quinazolin-6-yl)-2-(trifluoromethoxy)pyridin-3-yl)benzenesulfonamide]	6.11	8.55	6.14
COc1ncc(-c2cc(F)c3ncnc(N4CCN(C(=O)/C=C/C(C)=O)CC4)c3c2)cc1NS(=O)(=O)c1ccc(F)cc1F [Example 196, (E)-2,4-difluoro-N-(5-(8-fluoro-4-(4-(4-oxopent-2-enoyl)piperazin-1-yl)quinazoline-6-yl)-2-methoxypyridin-3-yl)benzenesulfonamide]	6.81	8.77	6.73
C=CS(=O)(=O)N1CCN(c2ncnc3ccc(-c4cnc(OC)c(NS(=O)(=O)c5ccc(F)cc5F)c4)cc23)CC1 [Example 207, 2,4-difluoro-N-(2-methoxy-5-(4-(4-(vinylsulfonyl)piperazin-1-yl)quinazolin-6-yl)pyridin-3-yl)benzenesulfonamide]	7.13		7.40
CC(=O)/C=C/C(=O)N1CCN(c2ncnc3ccc(-c4cnc(OC(F)F)c(NS(=O)(=O)c5ccc(F)cc5F)c4)cc23)CC1 [Example 208, (E)-N-(2-(difluoromethoxy)-5-(4-(4-(4-oxopent-2-enoyl)piperazin-1-yl)quinazoline-6-yl)pyridin-3-yl)-2,4-difluorobenzenesulfonamide]	5.99	7.51	5.98
C=C(F)C(=O)N1CCN(c2ncnc3ccc(-c4cnc(OC)c(NS(=O)(=O)c5c(F)cccc5F)c4)nc23)CC1 [Example 211, 2,6-difluoro-N-(5-(4-(4-(2-fluoroacryloyl)piperazin-1-yl)pyrido[3,2-d]pyrimidin-6-yl)-2-methoxy-pyridin-3-yl)benzene-sulfonamide]	7.98	8.77	7.89
CCC(=O)/C=C/C(=O)N1CCN(c2ncnc3ccc(-c4cnc(OC)c(NS(=O)(=O)c5c(F)cccc5F)c4)nc23)CC1 [Example 212, (E)-2,6-difluoro-N-(2-methoxy-5-(4-(4-(4-oxohex-2-enoyl)piperazin-1-yl)pyrido[3,2-d]pyrimidin-6-yl)pyridin-3-yl) benzene-sulfonamide]	7.85	8.42	7.82
COc1ncc(-c2ccc3ncnc(N4CCN(C(=O)/C=C/CF)CC4)c3n2)cc1NS(=O)(=O)c1c(F)cccc1F [Example 213, (E)-2,6-difluoro-N-(5-(4-(4-(4-fluorobut-2-enoyl)piperazin-1-yl)pyrido[3,2-d]pyrimidine-6-yl)-2-methoxy-pyridin-3-yl) benzene-sulfonamide]	7.79	8.01	7.84
C=CC(=O)N1CCN(c2ncnc3ccc(-c4cnc(OC)c(NS(=O)(=O)c5c(F)cccc5F)c4)nc23)CC1 [Example 214, N-(5-(4-(4-acryloyl-piperazin-1-yl)pyrido[3,2-d]pyrimidin-6-yl)-2-methoxy-pyridin-3-yl)-2,6-difluoro-benzene-sulfonamide]	8.20	8.68	7.90
COC/C=C/C(=O)N1CCN(c2ncnc3ccc(-c4cnc(OC)c(NS(=O)(=O)c5c(F)cccc5F)c4)nc23)CC1 [Example 215, (E)-2,6-difluoro-N-(2-methoxy-5-(4-(4-(4-methoxybut-2-enoyl)piperazin-1-yl)pyridino [3,2-d]pyrimidin-6-yl)pyridin-3-yl) benzene-sulfonamide]	8.20	8.62	8.00
COc1ncc(-c2ccc3ncnc(N4CCN(C(=O)/C=C/C(F)(F)F)CC4)c3n2)cc1NS(=O)(=O)c1c(F)cccc1F [Example 216, (E)-2,6-difluoro-N-(2-methoxy-5-(4-(4-(4,4,4-trifluorobut-2-enoyl)piperazin-1-yl)pyridino [3,2-d]pyrimidin-6-yl)pyridin-3-yl)benzene-sulfonamide]	7.32	9.00	7.25
COc1ncc(-c2ccc3ncnc(N4CCN(C(=O)/C=C/C(C)=O)CC4)c3n2)cc1NS(=O)(=O)c1ccc(C(F)(F)F)cc1F [Example 221, (E)-2-fluoro-N-(2-methoxy-5-(4-(4-(4-oxopent-2-enoyl)piperazin-1-yl)pyrido[3,2-d]pyrimidin-6-yl)pyridin-3-yl)-4-(trifluoro-methyl)benzene-sulfonamide]	7.22	8.66	7.37
CCOc1ncc(-c2ccc3ncnc(N4CCN(C(=O)/C=C/C(C)=O)CC4)c3n2)cc1NS(=O)(=O)c1ccccc1F [Example 227, (E)-N-(2-ethoxy-5-(4-(4-(4-oxopent-2-enoyl)piperazin-1-yl)pyrido[3,2-d]pyrimidin-6-yl)pyridin-3-yl)-2-fluorobenzene-sulfonamide]	7.12	8.62	7.08
COc1ncc(-c2ccc3ncnc(C4=CCN(C(=O)/C=C/C(C)=O)CC4)c3n2)cc1NS(=O)(=O)c1sc(C)nc1C [Example 237, (E)-N-(2-methoxy-5-(4-(1-(4-oxopent-2-enoyl)-1,2,3,6-tetrahydropyridin-4-yl)pyrido[3,2-d]pyrimidin-6-yl)pyridin-3-yl)-2,4-dimethylthiazole-5-sulfonamide]	7.15	8.28	7.23
COc1ncc(-c2ccc3ncnc(C4=CCN(C(=O)/C=C/C(C)=O)CC4)c3n2)cc1NS(=O)(=O)c1ccccc1F [Example 238, (E)-2-fluoro-N-(2-methoxy-5-(4-(1-(4-oxopent-2-enoyl)-1,2,3,6-tetrahydropyridin-4-yl)pyrido[3,2-d]pyrimidin-6-yl)pyridin-3-yl)benzenesulfonamide]	7.10	8.51	7.18
COc1ncc(-c2ccc3ncnc(C4=CCN(C(=O)/C=C/C(C)=O)CC4)c3n2)cc1NS(=O)(=O)c1c(F)cccc1F [Example 239, (E)-2,6-difluoro-N-(2-methoxy-5-(4-(1-(4-oxopent-2-enoyl)-1,2,3,6-tetrahydropyridin-4-yl)pyrido[3,2-d]pyrimidin-6-yl)pyridin-3-yl)benzenesulfonamide]	7.15	8.19	7.26
